One may read the IC50 as the midpoint of a concentration-inhibition curve.

These results are taken from patent US20240390340A1 (INCYTE CORPORATION, priority 2023, published 2024).

Data set [1] relates to Caco-2 cells. As to the kind of experiment: Caco2 assay (Papp A-B). To be noted: test compound 50 μM, 120 min, 37° C. Type of data set: in vitro ADME. The method in brief:
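Caco-2 monolayers grown 22–25 days on Transwells (TEER 300 Ω·cm^2) were dosed apically with 50 μM compound in HBSS; basolateral receiver held HBSS with 4% BSA. Incubation 120 min at 37° C, 5% CO2; donor and receiver samples quantified by LCMS and Papp A-B calculated from receiver-side cumulative flux slope.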

Data set [2] addresses KRAS G12V (Homo sapiens, UniProt P01116, G12V). As to the kind of experiment: GDP-GTP exchange assay (bodipy-GDP/GppNHp, SOS1), KRAS G12V. Particulars: Table H, column G12V; for compounds isolated as several atropisomers/diastereoisomers the value for the most potent isomer is quoted; read-out: KRAS G12V exchange assay IC50. It is filed as biochemical.
Data set [3] deals with KRAS G12D (Homo sapiens, UniProt P01116, G12D). As to the kind of experiment: GDP-GTP exchange assay (bodipy-GDP/GppNHp, SOS1), KRAS G12D. Type of data set: biochemical. To be noted: Table H, column G12D; for compounds isolated as several atropisomers/diastereoisomers the value for the most potent isomer is quoted; read-out: KRAS G12D exchange assay IC50.
Sequence of KRAS G12D (P01116 1-188 isoform P01116-2 G12D): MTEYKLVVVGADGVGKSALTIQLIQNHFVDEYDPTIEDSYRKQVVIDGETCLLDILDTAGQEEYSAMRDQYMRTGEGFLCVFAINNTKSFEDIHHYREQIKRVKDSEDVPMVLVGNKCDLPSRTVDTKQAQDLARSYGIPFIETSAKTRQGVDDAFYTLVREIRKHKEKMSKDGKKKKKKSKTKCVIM

Sequence of KRAS G12V (P01116 1-188 isoform P01116-2 G12V): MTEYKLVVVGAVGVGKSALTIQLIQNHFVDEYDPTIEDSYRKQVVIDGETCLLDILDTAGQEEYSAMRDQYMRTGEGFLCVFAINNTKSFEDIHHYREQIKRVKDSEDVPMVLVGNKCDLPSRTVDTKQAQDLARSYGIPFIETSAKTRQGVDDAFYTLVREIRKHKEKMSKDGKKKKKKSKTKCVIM

For `COc1nccc(O[C@H]2C[C@H](c3cc4c([C@@H](C)O)nc5c(F)c(-c6cccc(Cl)c6Cl)c(CCC#N)cc5c4n3[C@H]3[C@H]4CN[C@@H]3C4)N(C(=O)C3CC3)C2)c1F` [Example 53, 3-(1-((1R,4R,5S)-2-Azabicyclo[2.1.1]hexan-5-yl)-2-((2R,4S)-1-(cyclopropanecarbonyl)-4-((3-fluoro-2-methoxypyridin-4-yl)oxy)pyrrolidin-2-yl)-7-(2,3-dichlorophenyl)-6-fluoro-4-((R)-1-hydroxyethyl)-1H-pyrrolo[3,2-c]quinolin-8-yl)propanenitrile], in data set [1], the Caco-2 result was “++ (a Caco-2 value of >0.5 but ≤1)”. Besides, the IC50 in data set [2] and in data set [3] was no more than 100 nM in each case.

On to `C[C@@H](O)c1nc2c(F)c(-c3cccc(Cl)c3Cl)c(CCC#N)cc2c2c1cc([C@H]1C[C@H](Oc3nccs3)CN1C(=O)C1CC1)n2[C@H]1[C@H]2CN[C@@H]1C2` [Example 54, 3-(1-((1R,4R,5S)-2-Azabicyclo[2.1.1]hexan-5-yl)-2-((2R,4S)-1-(cyclopropanecarbonyl)-4-(thiazol-2-yloxy)pyrrolidin-2-yl)-7-(2,3-dichlorophenyl)-6-fluoro-4-((R)-1-hydroxyethyl)-1H-pyrrolo[3,2-c]quinolin-8-yl)propanenitrile], for which the Caco-2 result in data set [1] is reported as “+ (a Caco-2 value of ≤0.5)”. Besides, the IC50 in data set [2] and in data set [3] was no more than 100 nM throughout.

For `Cc1nc2c(F)c(-c3cccc(Cl)c3Cl)c(CCC#N)cc2c2c1cc([C@H]1C[C@H](Oc3ccnc4ccsc34)CN1C(=O)C1CC1)n2[C@H]1[C@H]2CN[C@@H]1C2` [Example 55, 3-(1-((1R,4R,5S)-2-Azabicyclo[2.1.1]hexan-5-yl)-2-((2R,4S)-1-(cyclopropanecarbonyl)-4-(thieno[3,2-b]pyridin-7-yloxy)pyrrolidin-2-yl)-7-(2,3-dichlorophenyl)-6-fluoro-4-methyl-1H-pyrrolo[3,2-c]quinolin-8-yl)propanenitrile], the Caco-2 result in data set [1] is listed as “+ (a Caco-2 value of ≤0.5)”. The IC50 in data set [2] and in data set [3] was no more than 100 nM in each case.

Consider `Cc1nc2c(F)c(-c3cccc(Cl)c3Cl)c(CCC#N)cc2c2c1cc([C@H]1C[C@H](Oc3cc(F)ccn3)CN1C(=O)C1CC1)n2[C@H]1[C@H]2CN[C@@H]1C2` [Example 56, 3-(1-((1R,4R,5S)-2-Azabicyclo[2.1.1]hexan-5-yl)-2-((2R,4S)-1-(cyclopropanecarbonyl)-4-((4-fluoropyridin-2-yl)oxy)pyrrolidin-2-yl)-7-(2,3-dichlorophenyl)-6-fluoro-4-methyl-1H-pyrrolo[3,2-c]quinolin-8-yl)propanenitrile], for which, in data set [1], the Caco-2 result is reported as “+++ (a Caco-2 value of >1)”. For the same compound, the half-maximal inhibitory concentration (IC50) in data set [2] and in data set [3] was no more than 100 nM throughout.

Consider `COc1cc(O[C@H]2C[C@H](c3cc4c([C@@H](C)O)nc5c(F)c(-c6cccc(Cl)c6Cl)c(CCC#N)cc5c4n3[C@H]3[C@H]4CN[C@@H]3C4)N(C(=O)C3CC3)C2)ncn1` [Example 57, 3-(1-((1R,4R,5S)-2-Azabicyclo[2.1.1]hexan-5-yl)-2-((2R,4S)-1-(cyclopropanecarbonyl)-4-((6-methoxypyrimidin-4-yl)oxy)pyrrolidin-2-yl)-7-(2,3-dichlorophenyl)-6-fluoro-4-((R)-1-hydroxyethyl)-1H-pyrrolo[3,2-c]quinolin-8-yl)propanenitrile], for which the Caco-2 entry in data set [1] is “++ (a Caco-2 value of >0.5 but ≤1)”. The IC50 in data set [2] and in data set [3] was no more than 100 nM each time.

As for `Cc1nc2c(F)c(-c3cccc(Cl)c3Cl)c(CCC#N)cc2c2c1cc([C@H]1C[C@H](Oc3ncccc3F)CN1C(=O)C1CC1)n2[C@H]1[C@H]2CN[C@@H]1C2` [Example 58, 3-(1-((1R,4R,5S)-2-Azabicyclo[2.1.1]hexan-5-yl)-2-((2R,4S)-1-(cyclopropanecarbonyl)-4-((3-fluoropyridin-2-yl)oxy)pyrrolidin-2-yl)-7-(2,3-dichlorophenyl)-6-fluoro-4-methyl-1H-pyrrolo[3,2-c]quinolin-8-yl)propanenitrile], the Caco-2 result in data set [1] is “+++ (a Caco-2 value of >1)”. Besides, the IC50 in data set [2] and in data set [3] was no more than 100 nM in each case.

Regarding `Cc1nc2c(F)c(-c3cccc(Cl)c3Cl)c(CCC#N)cc2c2c1cc([C@H]1C[C@H](Oc3ccc(C#N)cn3)CN1C(=O)C1CC1)n2[C@H]1[C@H]2CN[C@@H]1C2` [Example 60, 6-(((3S,5R)-5-(1-((1R,4R,5S)-2-Azabicyclo[2.1.1]hexan-5-yl)-8-(2-cyanoethyl)-7-(2,3-dichlorophenyl)-6-fluoro-4-methyl-1H-pyrrolo[3,2-c]quinolin-2-yl)-1-(cyclopropanecarbonyl)pyrrolidin-3-yl)oxy)nicotinonitrile], the Caco-2 result in data set [1] is “+ (a Caco-2 value of ≤0.5)”. Also, the IC50 in data set [2] and in data set [3] was no more than 100 nM each time.

With `Cc1cc(F)cc(O[C@H]2C[C@H](c3cc4c([C@@H](C)O)nc5c(F)c(-c6cccc(Cl)c6Cl)c(CCC#N)cc5c4n3[C@H]3[C@H]4CN[C@@H]3C4)N(C(=O)C3CC3)C2)n1` [Example 62, 3-(1-((1R,4R,5S)-2-Azabicyclo[2.1.1]hexan-5-yl)-2-((2R,4S)-1-(cyclopropanecarbonyl)-4-((4-fluoro-6-methylpyridin-2-yl)oxy)pyrrolidin-2-yl)-7-(2,3-dichlorophenyl)-6-fluoro-4-((R)-1-hydroxyethyl)-1H-pyrrolo[3,2-c]quinolin-8-yl)propanenitrile], in data set [1], the Caco-2 result was “++ (a Caco-2 value of >0.5 but ≤1)”. The 50% inhibitory concentration (IC50) in data set [2] and in data set [3] was no more than 100 nM each time.

As for `C[C@@H]1[C@@H](Oc2cc(F)ccn2)C[C@H](c2cc3c([C@@H](C)O)nc4c(F)c(-c5cccc(Cl)c5Cl)c(CCC#N)cc4c3n2[C@H]2[C@H]3CN[C@@H]2C3)N1C(=O)C1CC1` [Example 63, 3-(1-((1R,4R,5S)-2-Azabicyclo[2.1.1]hexan-5-yl)-2-((2R,4S,5R)-1-(cyclopropanecarbonyl)-4-((4-fluoropyridin-2-yl)oxy)-5-methylpyrrolidin-2-yl)-7-(2,3-dichlorophenyl)-6-fluoro-4-((R)-1-hydroxyethyl)-1H-pyrrolo[3,2-c]quinolin-8-yl)propanenitrile], the Caco-2 entry in data set [1] was “++ (a Caco-2 value of >0.5 but ≤1)”. The IC50 in data set [2] and in data set [3] was no more than 100 nM throughout.

As to `C[C@@H]1[C@@H](Oc2c(F)ccnc2Cl)C[C@H](c2cc3c([C@@H](C)O)nc4c(F)c(-c5cccc(Cl)c5Cl)c(CCC#N)cc4c3n2[C@H]2[C@H]3CN[C@@H]2C3)N1C(=O)C1CC1` [Example 64, 3-(1-((1R,4R,5S)-2-Azabicyclo[2.1.1]hexan-5-yl)-2-((2R,4S,5R)-4-((2-chloro-4-fluoropyridin-3-yl)oxy)-1-(cyclopropanecarbonyl)-5-methylpyrrolidin-2-yl)-7-(2,3-dichlorophenyl)-6-fluoro-4-((R)-1-hydroxyethyl)-1H-pyrrolo[3,2-c]quinolin-8-yl)propanenitrile], the Caco-2 result in data set [1] is “+++ (a Caco-2 value of >1)”. Moreover, the half-maximal inhibitory concentration (IC50) in data set [2] and in data set [3] was no more than 100 nM throughout.

In the case of `Cc1nc2c(F)c(-c3cccc(Cl)c3Cl)c(CCC#N)cc2c2c1cc([C@H]1C[C@H](Oc3cccc(N4CC(F)C4)n3)CN1C(=O)C1CC1)n2[C@H]1[C@H]2CN[C@@H]1C2` [Example 65, 3-(1-((1R,4R,5S)-2-Azabicyclo[2.1.1]hexan-5-yl)-2-((2R,4S)-1-(cyclopropanecarbonyl)-4-((6-(3-fluoroazetidin-1-yl)pyridin-2-yl)oxy)pyrrolidin-2-yl)-7-(2,3-dichlorophenyl)-6-fluoro-4-methyl-1H-pyrrolo[3,2-c]quinolin-8-yl)propanenitrile], the Caco-2 result in data set [1] is “+ (a Caco-2 value of ≤0.5)”. In addition, the IC50 in data set [2] and in data set [3] was no more than 100 nM in each case.

In the case of `Cc1nc2c(F)c(-c3cccc(Cl)c3Cl)c(CCC#N)cc2c2c1cc([C@H]1C[C@H](n3cc(C4(C(F)F)CC4)nn3)CN1C(=O)C1CC1)n2[C@H]1[C@H]2CN[C@@H]1C2` [Example 67, 3-(1-((1R,4R,5S)-2-Azabicyclo[2.1.1]hexan-5-yl)-2-((2R,4S)-1-(cyclopropanecarbonyl)-4-(4-(1-(difluoromethyl)cyclopropyl)-1H-1,2,3-triazol-1-yl)pyrrolidin-2-yl)-7-(2,3-dichlorophenyl)-6-fluoro-4-methyl-1H-pyrrolo[3,2-c]quinolin-8-yl)propanenitrile], in data set [1], the Caco-2 entry was “+ (a Caco-2 value of ≤0.5)”. For the same compound, the IC50 in data set [2] and in data set [3] was no more than 100 nM throughout.

As for `Cc1nc2c(F)c(-c3cccc(Cl)c3Cl)c(CCC#N)cc2c2c1cc([C@H]1C[C@H](n3cc(C45CC(C4)C5)nn3)CN1C(=O)C1CC1)n2[C@H]1[C@H]2CN[C@@H]1C2` [Example 68, 3-(2-((2R,4S)-4-(4-(Bicyclo[1.1.1]pentan-1-yl)-1H-1,2,3-triazol-1-yl)-1-(cyclopropanecarbonyl)pyrrolidin-2-yl)-1-((1R,4R,5S)-2-azabicyclo[2.1.1]hexan-5-yl)-7-(2,3-dichlorophenyl)-6-fluoro-4-methyl-1H-pyrrolo[3,2-c]quinolin-8-yl)propanenitrile], the Caco-2 entry in data set [1] is listed as “+ (a Caco-2 value of ≤0.5)”. The IC50 in data set [2] and in data set [3] was no more than 100 nM throughout.

As for `Cc1nc2c(F)c(-c3cccc(Cl)c3Cl)c(CCC#N)cc2c2c1cc([C@H]1C[C@H](n3cc(C4CCCCC4)nn3)CN1C(=O)C1CC1)n2[C@H]1[C@H]2CN[C@@H]1C2` [Example 69, 3-(1-((1R,4R,5S)-2-Azabicyclo[2.1.1]hexan-5-yl)-2-((2R,4S)-4-(4-cyclohexyl-1H-1,2,3-triazol-1-yl)-1-(cyclopropanecarbonyl)pyrrolidin-2-yl)-7-(2,3-dichlorophenyl)-6-fluoro-4-methyl-1H-pyrrolo[3,2-c]quinolin-8-yl)propanenitrile], the Caco-2 result in data set [1] was “+ (a Caco-2 value of ≤0.5)”. The half-maximal inhibitory concentration (IC50) in data set [2] and in data set [3] was no more than 100 nM throughout.
